The record followed here is patent publication US20190367516A1 (Bayer Pharma Aktiengesellschaft, priority 2015, published 2019).

Where two headings read alike, the source gives them in different places.

By EC50 is commonly meant the concentration that produces a half-maximal response.

The target of assay [1] is T1, human M2 receptor (Homo sapiens, UniProt P08172).
T1 sequence (P08172 1-466): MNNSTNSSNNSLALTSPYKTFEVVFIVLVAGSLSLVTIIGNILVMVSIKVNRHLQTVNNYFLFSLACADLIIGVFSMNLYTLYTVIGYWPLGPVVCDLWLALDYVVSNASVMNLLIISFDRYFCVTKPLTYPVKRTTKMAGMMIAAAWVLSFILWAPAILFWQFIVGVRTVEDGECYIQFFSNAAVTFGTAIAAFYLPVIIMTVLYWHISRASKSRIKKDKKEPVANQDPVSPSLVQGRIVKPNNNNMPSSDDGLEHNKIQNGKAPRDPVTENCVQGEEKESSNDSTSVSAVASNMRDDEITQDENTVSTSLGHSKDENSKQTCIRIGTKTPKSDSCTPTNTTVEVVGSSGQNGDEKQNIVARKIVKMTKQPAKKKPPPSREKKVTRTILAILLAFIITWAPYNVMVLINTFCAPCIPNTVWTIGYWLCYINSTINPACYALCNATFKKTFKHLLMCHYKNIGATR
Format: cell-based. The following applies: α >1 = positive cooperativity.

The target in assay [2] is T1, human M2 receptor. As to conditions: for Emax: read-out: Efficiency, boosting of the acetylcholine effect at EC20 acetylcholine concentration; for Efficiency: boosting of the acetylcholine effect at EC20 acetylcholine concentration.
Where [3] appears, read: shift of acetylcholine dose-response curve (Allosteric EC50 shift).
[4] abbreviates: Receptor activity EC50, allosteric potency at EC20 acetylcholine, M2-GIRK1/4 reporter cells, in some cases mean of two or more determinations.
Where [5] appears, read: shift in the acetylcholine dose-response curve (Allosteric EC50 shift, GraphPad PRISM).
[6] abbreviates: Receptor activity EC50, M2-GIRK1/4 activation test, acetylcholine at EC20, allosteric potency, in some cases mean values from two or more determinations.

For the compound `CCC1CCN(c2ccc3c(=O)c(C(=O)N[C@@H](C4CC4)C(F)(F)F)cn(-c4c(F)cc(F)cc4F)c3n2)C(=O)N1` (mixture of isomers) [Example 446, N-[(1 S)-1-Cyclopropyl-2,2,2-trifluoroethyl]-7-[4-ethyl-2-oxotetrahydropyrimidin-1(2H)-yl]-4-oxo-1-(2,4,6-trifluorophenyl)-1,4-dihydro-1,8-naphthyridine-3-carboxamide], the “Cooperativity (alpha factor)” value at human M2 receptor [1] (setting [3]) was found to be 21. Besides, a half-maximal effect on human M2 receptor [2] (setting [4]) (EC50) was put at 50 nM. In addition, at human M2 receptor [2] (M2-GIRK1/4 reporter cells), the Emax amounted to 85%.

For the compound `CCC(NC(=O)c1cn(-c2c(F)cc(F)cc2F)c2nc(N3C[C@@H](O)CC3=O)ccc2c1=O)C(C)C` (mixture of isomers) [Example 484, 7-[(4S)-4-Hydroxy-2-oxopyrrolidin-1-yl]-N-[2-methylpentan-3-yl]-4-oxo-1-(2,4,6-trifluorophenyl)-1,4-dihydro-1,8-naphthyridine-3-carboxamide], on human M2 receptor [1] (setting [3]), the “Cooperativity (alpha factor)” value is 44. The compound also gave an EC50 on human M2 receptor [2] (setting [4]) of 6 nM. For the same compound, the Emax on human M2 receptor [2] (M2-GIRK1/4 reporter cells) worked out at 99.5%.

On to `CC(C)C(NC(=O)c1cn(-c2c(F)cc(F)cc2F)c2nc(N3CCNC3=O)ccc2c1=O)C(F)(F)F` (racemic) [Example 537, 4-Oxo-7-(2-oxoimidazolidin-1-yl)-N-[1,1,1-trifluoro-3-methylbutan-2-yl]-1-(2,4,6-trifluorophenyl)-1,4-dihydro-1,8-naphthyridine-3-carboxamide], for which the “Cooperativity (alpha factor)” value on human M2 receptor [1] (setting [3]) came out at 31. The same compound displayed an EC50 at human M2 receptor [2] (setting [4]) of 10 nM. Moreover, the Efficiency at human M2 receptor [2] (M2-GIRK1/4 reporter cells) is 92.0%.

In the case of `CC(C)C(NC(=O)c1cn(-c2c(F)cc(F)cc2F)c2nc(N3CCNC3=O)ccc2c1=O)C(F)(F)F` (racemic) [Example 538, 4-Oxo-7-(2-oxoimidazolidin-1-yl)-N-[1,1,1-trifluoro-3-methylbutan-2-yl]-1-(2,4,6-trifluorophenyl)-1,4-dihydro-1,8-naphthyridine-3-carboxamide], at human M2 receptor [1] (setting [3]), the “Cooperativity (alpha factor)” value was determined as 40. This compound gave an EC50 at human M2 receptor [2] (setting [4]) of 7 nM. This compound also yielded an Efficiency on human M2 receptor [2] (M2-GIRK1/4 reporter cells) of 100.0%.

For the compound `CC(NC(=O)c1cn(-c2c(F)cc(F)cc2F)c2nc(N3CCNC3=O)ccc2c1=O)C(F)(F)C(F)(F)F` (racemic) [Example 542, 4-Oxo-7-(2-oxoimidazolidin-1-yl)-N-[3,3,4,4,4-pentafluorobutan-2-yl]-1-(2,4,6-trifluorophenyl)-1,4-dihydro-1,8-naphthyridine-3-carboxamide], the “Cooperativity (alpha factor)” value on human M2 receptor [1] (setting [3]) amounted to 36. Also, the response on human M2 receptor [2] (setting [4]) was half-maximal at 19 nM (EC50). Further, at human M2 receptor [2] (M2-GIRK1/4 reporter cells), the Efficiency is given as 98.5%.

Regarding `CC(C)(CC(F)(F)F)NC(=O)c1cn(-c2c(F)cc(F)cc2F)c2nc(N3CC(O)C4(CC4)C3)ccc2c1=O` (racemic) [Example 571, 7-[7-Hydroxy-5-azaspiro[2.4]hept-5-yl]-4-oxo-N-(4,4,4-trifluoro-2-methylbutan-2-yl)-1-(2,4,6-trifluorophenyl)-1,4-dihydro-1,8-naphthyridine-3-carboxamide], on human M2 receptor [1] (setting [3]), the “Cooperativity (alpha factor)” value is on record as 33. The compound also gave an Efficiency at human M2 receptor [2] (M2-GIRK1/4 reporter cells) of 94.0%.

With `CC[C@@H](NC(=O)c1cn(-c2ccc(F)cc2F)c2nc(N3CCC(C)(OC)C3=O)ccc2c1=O)C(F)(F)F` (single isomer, unassigned) [Example 198], the “Cooperativity (alpha factor)” value on human M2 receptor [1] (setting [5]) turned out to be 13. Besides, the EC50 at human M2 receptor [2] (setting [6]) is 113 nM.

Regarding `CC[C@@H](NC(=O)c1cn(-c2ccc(F)cc2F)c2nc(N3CCC(C)(OC)C3=O)ccc2c1=O)C(F)(F)F` (single isomer, unassigned) [Example 199], on human M2 receptor [1] (setting [5]), the “Cooperativity (alpha factor)” value turned out to be 15. Further, on human M2 receptor [2] (setting [6]), it took 263 nM to reach a half-maximal effect (EC50).

In the case of `O=C(N[C@H](c1ccccc1Cl)C(F)(F)F)c1cn(-c2ccc(F)cc2F)c2nc(N3CCCC(O)C3=O)ccc2c1=O` (single isomer, unassigned) [Example 207], the “Cooperativity (alpha factor)” value at human M2 receptor [1] (setting [5]) turned out to be 18. Besides, the EC50 at human M2 receptor [2] (setting [6]) is 35 nM.

For the compound `O=C(N[C@H](c1ccccc1Cl)C(F)(F)F)c1cn(-c2ccc(F)cc2F)c2nc(N3CCCC(O)C3=O)ccc2c1=O` (single isomer, unassigned) [Example 208], the “Cooperativity (alpha factor)” value on human M2 receptor [1] (setting [5]) came to 23. Also, on human M2 receptor [2] (setting [6]), a half-maximal response (EC50) required 115 nM.

For `CC(NC(=O)c1cn(-c2ccc(F)cc2F)c2nc(N3C[C@@H](O)CC3=O)ccc2c1=O)c1c(F)cccc1F` (single isomer, unassigned) [Example 216], the “Cooperativity (alpha factor)” value on human M2 receptor [1] (setting [5]) is listed as 35. In addition, the EC50 at human M2 receptor [2] (setting [6]) came out at 89 nM.

For the compound `CC[C@H](NC(=O)c1cn(-c2ccc(F)cc2F)c2nc(N3CCC(O)C3)ccc2c1=O)C(F)(F)F` (single isomer, unassigned) [Example 219], at human M2 receptor [1] (setting [5]), the “Cooperativity (alpha factor)” value worked out at 33. Besides, the EC50 at human M2 receptor [2] (setting [6]) came to 106 nM.

In the case of `CC[C@H](NC(=O)c1cn(-c2ccc(F)cc2F)c2nc(N3CCC(O)C3)ccc2c1=O)C(F)(F)F` (single isomer, unassigned) [Example 220], at human M2 receptor [1] (setting [5]), the “Cooperativity (alpha factor)” value turned out to be 29. On human M2 receptor [2] (setting [6]), this compound gave an EC50 of 116 nM.

As to `CC[C@@H](NC(=O)c1cn(-c2ccc(F)cc2F)c2nc(N3CC4CNC(=O)C4C3)ccc2c1=O)C(F)(F)F` (single isomer, unassigned) [Example 223], on human M2 receptor [1] (setting [5]), the “Cooperativity (alpha factor)” value is recorded as 30. The concentration for a half-maximal effect (EC50) at human M2 receptor [2] (setting [6]) turned out to be 84 nM.

Take `CC[C@@H](NC(=O)c1cn(-c2ccc(F)cc2F)c2nc(N3CCC(O)C3=O)ccc2c1=O)C(F)(F)F` (single isomer, unassigned) [Example 225]: the “Cooperativity (alpha factor)” value at human M2 receptor [1] (setting [5]) is reported as 33. Also, the EC50 on human M2 receptor [2] (setting [6]) was 363 nM.

For the compound `CC[C@@H](NC(=O)c1cn(-c2ccc(F)cc2F)c2nc(N3CCC(O)C3=O)ccc2c1=O)C(F)(F)F` (single isomer, unassigned) [Example 226], the “Cooperativity (alpha factor)” value at human M2 receptor [1] (setting [5]) was determined as 35. The same compound showed an EC50 at human M2 receptor [2] (setting [6]) of 83 nM.

For `CC(COC(F)(F)F)NC(=O)c1cn(-c2ccc(F)cc2F)c2nc(N3CC[C@H](F)C3)ccc2c1=O` (single isomer, unassigned) [Example 228], the “Cooperativity (alpha factor)” value at human M2 receptor [1] (setting [5]) was found to be 12. The compound also gave an EC50 at human M2 receptor [2] (setting [6]) of 51 nM.

For `CC(COC(F)(F)F)NC(=O)c1cn(-c2ccc(F)cc2F)c2nc(N3CC[C@H](F)C3)ccc2c1=O` (single isomer, unassigned) [Example 229], the “Cooperativity (alpha factor)” value at human M2 receptor [1] (setting [5]) amounted to 13. This compound also came in with an EC50 at human M2 receptor [2] (setting [6]) of 52 nM.

With `O=C(NC(c1c(F)cccc1F)C(F)(F)F)c1cn(-c2ccc(F)cc2F)c2nc(N3CC[C@H](F)C3)ccc2c1=O` (single isomer, unassigned) [Example 242], the “Cooperativity (alpha factor)” value on human M2 receptor [1] (setting [5]) is 10. In addition, the response on human M2 receptor [2] (setting [6]) was half-maximal at 90 nM (EC50).

With `O=C(NC(c1c(F)cccc1F)C(F)(F)F)c1cn(-c2ccc(F)cc2F)c2nc(N3CC[C@H](F)C3)ccc2c1=O` (single isomer, unassigned) [Example 243], the “Cooperativity (alpha factor)” value at human M2 receptor [1] (setting [5]) is 33. In addition, on human M2 receptor [2] (setting [6]), a half-maximal response (EC50) required 15 nM.

Regarding `O=C(NC(c1c(F)cccc1F)C(F)(F)F)c1cn(-c2ccc(F)cc2F)c2nc(N3C[C@@H](O)CC3=O)ccc2c1=O` (single isomer, unassigned) [Example 245], at human M2 receptor [1] (setting [5]), the “Cooperativity (alpha factor)” value turned out to be 42. The same compound gave an EC50 at human M2 receptor [2] (setting [6]) of 112 nM.

In the case of `O=C(NC(c1c(F)cccc1F)C(F)(F)F)c1cn(-c2ccc(F)cc2F)c2nc(N3C[C@@H](O)CC3=O)ccc2c1=O` (single isomer, unassigned) [Example 246], the “Cooperativity (alpha factor)” value at human M2 receptor [1] (setting [5]) turned out to be 53. In addition, the response on human M2 receptor [2] (setting [6]) was half-maximal at 23 nM (EC50).

As for `O=C(NC(c1c(F)cccc1F)C(F)(F)F)c1cn(-c2ccc(F)cc2F)c2nc(N3CCCC(O)C3=O)ccc2c1=O` (single isomer, unassigned) [Example 250, 1-(2,4-Difluorophenyl)-N-[1-(2,6-difluorophenyl)-2,2,2-trifluoroethyl]-7-[3-hydroxy-2-oxopiperidin-1-yl]-4-oxo-1,4-dihydro-1,8-naphthyridine-3-carboxamide], the “Cooperativity (alpha factor)” value at human M2 receptor [1] (setting [5]) was 27. The same compound displayed an EC50 at human M2 receptor [2] (setting [6]) of 101 nM.

On to `O=C(NC(c1c(F)cccc1F)C(F)(F)F)c1cn(-c2ccc(F)cc2F)c2nc(N3CCC(O)CC3=O)ccc2c1=O` (single isomer, unassigned) [Example 255, 1-(2,4-Difluorophenyl)-N-[1-(2,6-difluorophenyl)-2,2,2-trifluoroethyl]-7-[4-hydroxy-2-oxopiperidin-1-yl]-4-oxo-1,4-dihydro-1,8-naphthyridine-3-carboxamide], for which, at human M2 receptor [1] (setting [5]), the “Cooperativity (alpha factor)” value came to 31. The EC50 at human M2 receptor [2] (setting [6]) was determined as 83 nM.

For the compound `CC[C@@H](NC(=O)c1cn(-c2c(F)cc(F)cc2F)c2nc(N3CCC(O)C3=O)ccc2c1=O)C(F)(F)F` (single isomer, unassigned) [Example 281], at human M2 receptor [1] (setting [5]), the “Cooperativity (alpha factor)” value was determined as 44. The EC50 on human M2 receptor [2] (setting [6]) was found to be 34 nM.

For `O=C(NC(c1ccccc1Cl)C(F)(F)F)c1cn(-c2ccccc2F)c2nc(N3CCC(O)C3=O)ccc2c1=O` (single isomer, unassigned) [Example 288], on human M2 receptor [1] (setting [5]), the “Cooperativity (alpha factor)” value is listed as 12. The same compound yielded an EC50 at human M2 receptor [2] (setting [6]) of 40 nM.

As to `CC[C@@H](NC(=O)c1cn(-c2c(F)cccc2F)c2nc(N3CCC(O)C3=O)ccc2c1=O)C(F)(F)F` (single isomer, unassigned) [Example 294], the “Cooperativity (alpha factor)” value at human M2 receptor [1] (setting [5]) is recorded as 31. The compound also returned an EC50 on human M2 receptor [2] (setting [6]) of 65 nM.
